Here are results for 23 compounds from patent publication US5646173A, “Tricyclic pyrrole derivatives useful as 5-HT selective agents” (Hoffmann-La Roche Inc., priority 1993, dated 1997).

Structures can show the parent of a compound that is named as a salt. Where two headings read alike, the source gives them in different places.

For one test, the target named is T1, 5HT2C receptor (Sus scrofa, UniProt K7GSR7).
T1 construct: from tissue
T1 sequence (K7GSR7 1-457): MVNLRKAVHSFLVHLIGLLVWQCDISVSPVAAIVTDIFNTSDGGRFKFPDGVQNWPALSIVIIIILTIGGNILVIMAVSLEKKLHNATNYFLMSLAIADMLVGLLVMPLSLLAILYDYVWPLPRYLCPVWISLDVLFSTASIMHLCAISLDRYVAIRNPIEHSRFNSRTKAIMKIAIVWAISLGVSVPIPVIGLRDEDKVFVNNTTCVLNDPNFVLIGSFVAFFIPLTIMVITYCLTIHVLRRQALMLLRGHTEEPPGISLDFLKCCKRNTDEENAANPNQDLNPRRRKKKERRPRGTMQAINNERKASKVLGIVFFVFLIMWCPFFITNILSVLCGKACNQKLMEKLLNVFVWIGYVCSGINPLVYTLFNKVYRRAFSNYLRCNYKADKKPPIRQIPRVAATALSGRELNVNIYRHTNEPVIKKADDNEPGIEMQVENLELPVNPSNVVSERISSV
Put plainly: 3H-mesulergine binding assay (Method I b). The method, then:
(§1) The binding of the compounds of formula I in accordance with the invention to serotonin receptors was determined in vitro by standard methods. The preparations were investigated in accordance with the assays given hereinafter:
b) For the binding to the 5HT2C receptor in accordance with the ^3 H-mesulergine binding assay according to the method of A. Pazos et al., Europ. J. Pharmacol. 106, 539-546 or. D. Hoyer, Receptor Research 8, 59-81 (1988).

The target in a further test is T2, 5HT2A receptor (Rattus norvegicus, UniProt P14842).
T2 construct: from tissue; host or cells: rat frontal cortex membranes (inferred from the cited method)
The test is described as follows: biochemical. Format: binding. The procedure: as §1
c) For the binding to the 5HT2A receptor in accordance with the ^3 H-ketanserine binding assay according to the method of J. E. Leysen, Molecular Pharmacology 21, 301-304 (1981).

A further test deals with 5HT1A receptor. Put plainly: 3H-8-OH-DPAT binding assay (Method I a). Particulars: read-out: IC50, test method a. The procedure: The binding of the compounds of formula I in accordance with the invention to serotonin receptors was determined in vitro by standard methods. The preparations were investigated in accordance with the assays given hereinafter: […]
Setting [1] is: 5HT2C, 3H-mesulergine, Method I, read-out: IC50, test method b.

T2 sequence (P14842 whole entry): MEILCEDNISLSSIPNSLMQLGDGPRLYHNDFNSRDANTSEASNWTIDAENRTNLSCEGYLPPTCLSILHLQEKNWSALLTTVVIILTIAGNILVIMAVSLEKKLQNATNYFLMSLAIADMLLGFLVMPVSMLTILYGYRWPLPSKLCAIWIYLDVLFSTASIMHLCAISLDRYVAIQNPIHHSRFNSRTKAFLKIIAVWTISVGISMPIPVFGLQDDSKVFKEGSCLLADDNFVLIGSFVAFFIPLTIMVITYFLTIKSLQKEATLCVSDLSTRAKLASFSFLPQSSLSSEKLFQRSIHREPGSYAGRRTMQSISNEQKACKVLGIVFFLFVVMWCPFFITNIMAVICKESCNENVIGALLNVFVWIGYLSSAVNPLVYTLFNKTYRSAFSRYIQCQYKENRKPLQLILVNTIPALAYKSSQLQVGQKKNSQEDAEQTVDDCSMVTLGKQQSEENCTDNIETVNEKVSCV

Regarding `CC(N)Cn1ccc2c1-c1cc(Cl)ccc1C2` (racemic) [Example 21, (RS)-2-(7-chloro-1,4-dihydro-indeno[1,2-b]pyrrol-1-yl)-1-methyl-ethylaminefumarate (1:0.5)], the IC50 (commonly the concentration at which inhibition is half-maximal) was 56.6 nM on 5HT2C receptor, 2540 nM at 5HT2A receptor and 1350 nM at 5HT1A receptor.
On the same counts, the results for `COc1ccc2c(c1)-c1c(ccn1CC(C)N)C2` (racemic) [Example 22, (RS)-2-(7-methoxy-1,4-dihydro-indeno[1,2-b]pyrrol-1-yl)-1-methyl-ethylamine fumarate (1:0.5)] are 30.4 nM, 1400 nM and 1590 nM.
`CC(N)Cn1ccc2c1-c1ccccc1OC2` (racemic) [Example 34, (RS)-1-(1,4-dihydro-[1]benzopyrano-[4,3-b]pyrrol-1-yl)-1-methyl-ethylaminefumarate (1:0.5)]: the IC50 on 5HT2C receptor (setting [1]) worked out at 107 nM; on 5HT2A receptor, 2640 nM; on 5HT1A receptor, 1620 nM.
With `CC(N)Cn1ccc2c1-c1ccc(Cl)cc1C2` (racemic) [Example 53, (RS)-2-(6-chloro-1,4-dihydro-indeno[1,2-b]pyrrol-1-yl)-1-methyl-ethylaminefumarate (1:0.5)], the IC50 at 5HT2C receptor is 308 nM; against 5HT2A receptor, 11300 nM; on 5HT1A receptor it was 1100 nM.
Turning to `COc1ccc2c(c1)Cc1ccn(CC(C)N)c1-2` (racemic) [Example 55, (RS)-2-(6-methoxy-1,4-dihydro-indeno[1,2-b]pyrrol-1-yl)-1-methyl-ethylamine fumarate (1:0.5)], the IC50 at 5HT2C receptor was 371 nM; against 5HT2A receptor, 8350 nM; on 5HT1A receptor it was 1260 nM.
Consider `CC(N)Cn1ccc2c1-c1ccccc1SC2` (racemic) [Example 64], for which the results for the IC50 on 5HT2C receptor (setting [1]), at 5HT2A receptor and at 5HT1A receptor were 85.4 nM, 773 nM and 384 nM, respectively.
With `COc1cccc2c1-c1c(ccn1CC(C)N)C2` (racemic) [Example 67, (RS)-2-(8-methoxy-1,4-dihydro-indeno[1,2-b]pyrrol-1-yl)-1-methyl-ethylamine fumarate (1:0.5)], the IC50 on 5HT2C receptor was 146 nM; at 5HT2A receptor it was 1070 nM; at 5HT1A receptor it was 1750 nM.
On the same counts, the results for `CC(N)Cn1ccc2c1-c1ccccc1C2c1ccccc1` (racemic) [Example 69, (2RS/4RS)-2-(4-phenyl-1,4-dihydro-indeno[1,2-b]pyrrol-1-yl)-1-methyl-ethylamine fumarate (1:0.86)] are 143 nM, 854 nM and 3460 nM.
Turning to `O=c1ccc2[nH]cc(C3=CCNCC3)c2[nH]1` [CP 93129, reference compound], the values for the IC50 at 5HT2A receptor and on 5HT1A receptor were 29200 nM and 1620 nM, respectively.
`COc1ccc2ccc3ccn(C[C@H](C)N)c3c2c1` [Example 7, (S)-2-(8-methoxy-1H-benz[g]indol-1-yl)-1-methyl-ethylamine fumarate (1:0.5)]: the IC50 on 5HT2C receptor was determined as 24 nM; against 5HT2A receptor, 1200 nM; at 5HT1A receptor, 2160 nM.
The like results for `COc1ccc2c(c1)-c1c(ccn1CCN)C2` [Example 23, 2-(7-methoxy-1,4-dihydro-indeno[1,2-b]pyrrol-1-yl)-ethylamine fumarate (1:1)] were, in that order, 45.2 nM, 3340 nM and 347 nM.
Regarding `COc1ccc2c(c1)-c1c(ccn1C[C@@H](C)N)C2` [Example 28, (R)-2-(7-methoxy-1,4-dihydro-indeno[1,2-b]pyrrol-1-yl)-1-methyl-ethylaminefumarate (1:0.5)], the IC50 came to 78.7 nM on 5HT2C receptor, 1630 nM against 5HT2A receptor and 1070 nM on 5HT1A receptor.
For the compound `COc1ccc2c(c1)-c1c(ccn1C[C@@H](C)N)CC2` [Example 30, (R)-2-(4,5-dihydro-8-methoxy-1H-benz[g]indol-1-yl)-1-methyl-ethylamine fumarate (1:1)], the IC50 came to 58.1 nM on 5HT2C receptor, 479 nM on 5HT2A receptor and 298 nM on 5HT1A receptor.
Turning to `COc1ccc2ccc3ccn(C[C@@H](C)N)c3c2c1` [Example 31, (R)-2-(8-methoxy-1H-benz[g]indol-1-yl)-1-methyl-ethylamine fumarate (1:0.5)], the figures for the IC50 at 5HT2C receptor, on 5HT2A receptor and on 5HT1A receptor were 28.1 nM, 874 nM and 337 nM, respectively.
The like results for `COc1ccc2ccc3ccn(CCN)c3c2c1` [Example 32, 2-(8-methoxy-1H-benz[g]indol-1-yl)-ethylamine fumarate (1:1)] were, in that order, 18 nM, 1670 nM and 139 nM.
For `COc1ccc2c(c1)-c1c(ccn1C(C)(C)N)CO2` [Example 54, (RS)1-(8-methoxy-1,4-dihydro[1]benzopyrano[4,3b]pyrrol1-yl)-1-methyl-ethylamine], the IC50 on 5HT2C receptor (setting [1]) amounted to 116 nM; at 5HT2A receptor (5HT2A, 3H-ketanserine, Method I, read-out: IC50, test method c) it was 2590 nM; on 5HT1A receptor it was 825 nM.
Take `COc1ccc2c(c1)-c1c(ccn1CCN)CC2` [Example 59, 2-(4,5-dihydro-8-methoxy-1H-benz[g]indol-1-yl)-ethylamine fumarate (1:1)]: the values for the IC50 at 5HT2C receptor, against 5HT2A receptor and at 5HT1A receptor were 23.8 nM, 1510 nM and 97 nM, respectively.
Regarding `CN1C[C@H](CNC(=O)OCc2ccccc2)C[C@@H]2c3cccc4c3c(cn4C)C[C@H]21` [Metergoline, reference compound], the IC50 at 5HT2C receptor is 5.5 nM.
Take `COc1ccccc1N1CCN(CCCCN2C(=O)c3ccccc3C2=O)CC1` [NAN-190, reference compound]: the figures for the IC50 at 5HT2C receptor, at 5HT2A receptor and on 5HT1A receptor were 1800 nM, 581 nM and 0.56 nM, respectively.
On the same counts, the results for `Cc1nc2ccccn2c(=O)c1CCN1CCC(C(=O)c2ccc(F)cc2)CC1` [Pirenperone, reference compound] are 37 nM, 2.9 nM and 2880 nM.
On to `COc1ccc2[nH]cc(C3=CCNCC3)c2c1` [RU 24969, reference compound], for which, on 5HT1A receptor, the IC50 worked out at 8 nM.
In the case of `Cc1nc2sccn2c(=O)c1CCN1CCC(=C(c2ccc(F)cc2)c2ccc(F)cc2)CC1` [Ritanserine, reference compound], the IC50 at 5HT2C receptor worked out at 37 nM.
`Clc1cccc(N2CCNCC2)c1` [mCPP, reference compound]: the IC50 at 5HT2C receptor (setting [1]) turned out to be 53 nM; against 5HT2A receptor, 319 nM; on 5HT1A receptor, 227 nM.
